Columns and labels:
[1] = target: T1, cloned human ETA receptor (Homo sapiens, UniProt P25101); assay: ETA receptor binding assay ([125I]-ET1, membranes of ETA receptor-expressing CHO cells); details: CHO cell membranes, 25 pM [125I]-ET1, 25° C.
T1 construct: expressed in transfected cells; host or cells: CHO cells
T1 sequence (P25101 21-427): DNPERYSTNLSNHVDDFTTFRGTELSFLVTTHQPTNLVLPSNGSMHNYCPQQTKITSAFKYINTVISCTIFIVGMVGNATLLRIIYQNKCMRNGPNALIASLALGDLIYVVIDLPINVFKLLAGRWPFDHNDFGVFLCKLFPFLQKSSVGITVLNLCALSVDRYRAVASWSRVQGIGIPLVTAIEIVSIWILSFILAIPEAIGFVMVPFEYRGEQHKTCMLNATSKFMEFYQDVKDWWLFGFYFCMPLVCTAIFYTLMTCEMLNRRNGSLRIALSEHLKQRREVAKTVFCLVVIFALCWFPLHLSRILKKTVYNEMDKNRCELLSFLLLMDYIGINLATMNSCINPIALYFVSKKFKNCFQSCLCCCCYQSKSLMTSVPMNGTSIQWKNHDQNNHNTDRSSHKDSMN
Method: (§1) For binding studies, cloned human ETA receptor-expressing CHO cells and guinea-pig cerebellar membranes with >60% ETB relative to ETA receptors were employed.
The ETA receptor-expressing CHO cells were grown in F12 medium with 10% fetal calf serum, 1% glutamine, 100 U/ml penicillin and 0.2% streptomycin (Gibco BRL, Gaithersburg, Md., USA). After 48 h, the cells were washed with PBS and incubated with 0.05% trypsin-containing PBS for 5 min. After neutralization with F12 medium, the cells were collected by centrifugation at 300×g. For cell lysis, the pellet was briefly washed with lysis buffer (5 mM Tris-HCl, pH 7.4 with 10% glycerol) and then incubated at a concentration of 10^7 cells/ml of lysis buffer at 4° C. for 30 min. The membranes were centrifuged at 20,000×g for 10 min, and the pellet was stored in liquid nitrogen.
(§2) For the ETA and ETB receptor binding assays, the membranes were suspended in incubation buffer (50 mM Tris-HCl, pH 7.4 with 5 mM MnCl2, 40 μg/ml bacitracin and 0.2% BSA) at a concentration of 50 μg of protein per assay mixture and incubated at 25° C. with 25 pM [125I [sic]]-ET1 (ETA receptor assay) or 25 pM [125I [sic]]-RZ3 (ETB receptor assay) in the presence and absence of test substance. The nonspecific binding was determined with 10^−7 M ET1. Filtration through GF/B glass fiber filters (Whatman, England) in a Skatron cell collector (Skatron, Lier, Norway) after 30 min separated the free and the bound radioligand, and the filters were washed with ice-cold Tris-HCl buffer, pH 7.4 with 0.2% BSA. The radioactivity collected on the filters was quantified using a Packard 2200 CA liquid scintillation counter.

[2] = target: T2, ETB receptor (Cavia porcellus, UniProt H0VTF3); assay: ETB receptor binding assay ([125I]-RZ3, guinea-pig cerebellar membranes); details: 25 pM [125I]-RZ3, 25° C.
T2 construct: Guinea-pig cerebella were homogenized in a Potter-Elvejhem homogenizer; from tissue; host or cells: guinea-pig cerebellum membranes
T2 sequence (H0VTF3 27-415): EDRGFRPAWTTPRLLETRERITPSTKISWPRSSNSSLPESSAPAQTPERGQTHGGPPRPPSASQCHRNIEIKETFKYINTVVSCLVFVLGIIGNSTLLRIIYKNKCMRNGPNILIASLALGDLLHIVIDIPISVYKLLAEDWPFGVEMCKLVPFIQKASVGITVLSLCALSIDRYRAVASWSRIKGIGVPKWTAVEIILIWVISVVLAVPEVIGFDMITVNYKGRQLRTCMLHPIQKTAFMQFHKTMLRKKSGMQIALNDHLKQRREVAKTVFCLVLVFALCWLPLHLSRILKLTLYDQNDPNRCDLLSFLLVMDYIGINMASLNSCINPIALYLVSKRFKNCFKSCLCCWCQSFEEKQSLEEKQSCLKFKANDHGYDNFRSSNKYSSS
Method: as §1
Guinea-pig cerebella were homogenized in a Potter-Elvejhem homogenizer and obtained by differential centrifugation at 1000×g for 10 min and repeated centrifugation of the supernatant at 20,000×g for 10 min.
as §2

Structure (SMILES) | Ki [1] | Ki [2]
Cc1cc(C)nc(OC(C(=O)O)C(C)(c2ccccc2)c2ccccc2)n1 (racemic) [Compound I-3, 2-(4,6-Dimethyl-2-pyrimidinyloxy)-3,3-diphenylbutyric Acid] | 4 nM | 325 nM
COc1cc(OC)nc(OC(C(=O)O)C(C)(c2ccccc2)c2ccccc2)n1 (centres unmarked) [Compound I-1] | 25 nM | 950 nM
COc1cc(C)nc(OC(C(=O)O)C(C)(c2ccccc2)c2ccccc2)n1 (centres unmarked) [Compound I-2] | 3.5 nM | 290 nM
CCC(c1ccccc1)(c1ccccc1)C(Oc1nc(OC)cc(OC)n1)C(=O)O (centres unmarked) [Compound I-11] | 20 nM | 1400 nM
CCC(c1ccccc1)(c1ccccc1)C(Oc1nc(C)cc(OC)n1)C(=O)O (centres unmarked) [Compound I-12] | 4 nM | 250 nM
CCC(c1ccccc1)(c1ccccc1)C(Oc1nc(C)cc(C)n1)C(=O)O (centres unmarked) [Compound I-15] | 4 nM | 540 nM
COc1cc(C)nc(OC(C(=O)O)C(CO)(c2ccccc2)c2ccccc2)n1 (centres unmarked) [Compound I-20] | 5 nM | 445 nM
